Experimental data taken from ChEMBL document CHEMBL1201862, “PubChem BioAssay data set” (2004).
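How tested: cells in 96-well plates exposed to compound for 48 hours at five concentrations. GI50 is the concentration that inhibits growth by half.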 Activity calls are given as the source filed them. Rule as the data show it: active = GI50 up to about 1.1 µM and inactive = higher.

Key:
Experiment in all cases: DTP human tumour cell line panel, 48 h
786-0 = system: 786-0
A498 = system: A498
A549 = system: A549
CAKI-1 = system: CAKI-1
DU-145 = system: DU-145
EKVX = system: EKVX
HCT-15 = system: HCT-15
HOP-62 = system: HOP-62
IGROV-1 = system: IGROV-1
Malme-3M = system: Malme-3M
NCI-H226 = system: NCI-H226
NCI-H23 = system: NCI-H23
NCI-H522 = system: NCI-H522
OVCAR-3 = system: OVCAR-3
RPMI-8226 = system: RPMI-8226
SK-MEL-2 = system: SK-MEL-2
SK-MEL-5 = system: SK-MEL-5
SNB-19 = system: SNB-19
SNB-75 = system: SNB-75
UO-31 = system: UO-31

Question: For `CN(Cc1cccc2ccccc12)Cc1cccc2ccccc12`, which GI50 (786-0) is on record?
Answer: The GI50 was 37.8 µM (inactive).

Question: And the GI50 (A498)?
Answer: The GI50 was 28.8 µM (inactive).

Question: And the GI50 (A549)?
Answer: Its GI50 is 34 µM (inactive).

Question: And the GI50 (CAKI-1)?
Answer: Its GI50 is 50.1 µM (inactive).

Question: And the GI50 (DU-145)?
Answer: The GI50 was 54 µM (inactive).

Question: And the GI50 (EKVX)?
Answer: Its GI50 is 37.5 µM (inactive).

Question: And the GI50 (HCT-15)?
Answer: The GI50 was 22.2 µM.

Question: What about the GI50 (HOP-62) of the same molecule?
Answer: Its GI50 is 45.6 µM (inactive).

Question: What about the GI50 (IGROV-1) of the same molecule?
Answer: Its GI50 is 32.2 µM (inactive).

Question: What about the GI50 (Malme-3M) of the same molecule?
Answer: Its GI50 is 20 µM (inactive).

Question: And the GI50 (NCI-H226)?
Answer: The GI50 was 30.9 µM (inactive).

Question: And the GI50 (NCI-H23)?
Answer: Its GI50 is 26.6 µM (inactive).

Question: What about the GI50 (NCI-H522) of the same molecule?
Answer: Its GI50 is 19 µM (inactive).

Question: And the GI50 (OVCAR-3)?
Answer: The GI50 was 44.4 µM (inactive).

Question: What about the GI50 (RPMI-8226) of the same molecule?
Answer: The GI50 was 22.6 µM (inactive).

Question: And the GI50 (SK-MEL-2)?
Answer: The GI50 was 14.1 µM (inactive).

Question: What about the GI50 (SK-MEL-5) of the same molecule?
Answer: The GI50 was 18.5 µM (inactive).

Question: And the GI50 (SNB-19)?
Answer: The GI50 was 52.7 µM (inactive).

Question: What about the GI50 (SNB-75) of the same molecule?
Answer: Its GI50 is 46.1 µM (inactive).

Question: And the GI50 (UO-31)?
Answer: Its GI50 is 36.6 µM (inactive).

Question: What does the source list for `COc1cc2nncc(SCc3ccc(Cl)c(Cl)c3)c2cc1OC`?
Answer: GI50 (786-0): 42.8 µM (inactive); GI50 (A498): > 100 µM (inactive); GI50 (A549): > 82.2 µM (inactive); GI50 (CAKI-1): > 73.8 µM (inactive); GI50 (DU-145): > 100 µM (inactive); GI50 (EKVX): > 100 µM (inactive); GI50 (HCT-15): > 31.3 µM; GI50 (HOP-62): 32.3 µM (inactive); GI50 (IGROV-1): 99.3 µM (inactive); GI50 (Malme-3M): > 100 µM (inactive); GI50 (NCI-H226): > 100 µM (inactive); GI50 (NCI-H23): > 100 µM (inactive); GI50 (NCI-H522): 23.2 µM (inactive); GI50 (OVCAR-3): > 100 µM (inactive); GI50 (RPMI-8226): > 100 µM (inactive); GI50 (SK-MEL-2): > 100 µM (inactive); GI50 (SK-MEL-5): > 100 µM (inactive); GI50 (SNB-19): 45.9 µM (inactive); GI50 (SNB-75): 24.4 µM (inactive); GI50 (UO-31): > 100 µM (inactive)

Question: Which results are given for `CN(C)CCCNC(=O)c1cn2c(ccc3sc4ccccc4c(=O)c32)n1`?
Answer: GI50 (786-0): 3.06 µM (inactive); GI50 (A498): 14.6 µM (inactive); GI50 (A549): 9.14 µM (inactive); GI50 (CAKI-1): 3.28 µM (inactive); GI50 (DU-145): 12.3 µM (inactive); GI50 (EKVX): 14.4 µM (inactive); GI50 (HCT-15): 2.2 µM; GI50 (HOP-62): 12.3 µM (inactive); GI50 (IGROV-1): 10.6 µM (inactive); GI50 (Malme-3M): 8.99 µM (inactive); GI50 (NCI-H226): 17.3 µM (inactive); GI50 (NCI-H23): 13.4 µM (inactive); GI50 (NCI-H522): 12.4 µM (inactive); GI50 (OVCAR-3): 10.7 µM (inactive); GI50 (RPMI-8226): 1.73 µM (inactive); GI50 (SK-MEL-2): 21.5 µM (inactive); GI50 (SK-MEL-5): 1.55 µM (inactive); GI50 (SNB-19): 15.1 µM (inactive); GI50 (SNB-75): 14.3 µM (inactive); GI50 (UO-31): 10.8 µM (inactive)

Question: How did the GI50 (786-0) turn out when `O=C1c2ccccc2C(=O)N1c1ccc(Cc2ccc(N3C(=O)c4ccccc4C3=O)cc2)cc1` was run?
Answer: The GI50 was > 100 µM (inactive).

Question: And the GI50 (A498)?
Answer: The GI50 was > 100 µM (inactive).

Question: And the GI50 (A549)?
Answer: Its GI50 is > 100 µM (inactive).

Question: And the GI50 (CAKI-1)?
Answer: The GI50 was > 100 µM (inactive).

Question: And the GI50 (DU-145)?
Answer: Its GI50 is > 100 µM (inactive).

Question: What about the GI50 (EKVX) of the same molecule?
Answer: Its GI50 is > 100 µM (inactive).

Question: And the GI50 (HCT-15)?
Answer: The GI50 was > 100 µM.

Question: And the GI50 (HOP-62)?
Answer: Its GI50 is 49.9 µM (inactive).

Question: And the GI50 (IGROV-1)?
Answer: The GI50 was > 100 µM (inactive).

Question: What about the GI50 (Malme-3M) of the same molecule?
Answer: Its GI50 is > 100 µM (inactive).

Question: What about the GI50 (NCI-H226) of the same molecule?
Answer: Its GI50 is > 100 µM (inactive).

Question: And the GI50 (NCI-H23)?
Answer: Its GI50 is > 100 µM (inactive).

Question: And the GI50 (NCI-H522)?
Answer: Its GI50 is > 100 µM (inactive).

Question: And the GI50 (OVCAR-3)?
Answer: The GI50 was > 21.9 µM (inactive).

Question: What about the GI50 (RPMI-8226) of the same molecule?
Answer: Its GI50 is > 100 µM (inactive).

Question: What about the GI50 (SK-MEL-2) of the same molecule?
Answer: Its GI50 is > 100 µM (inactive).

Question: What about the GI50 (SK-MEL-5) of the same molecule?
Answer: The GI50 was > 100 µM (inactive).

Question: And the GI50 (SNB-19)?
Answer: The GI50 was > 100 µM (inactive).

Question: And the GI50 (SNB-75)?
Answer: The GI50 was > 84.5 µM (inactive).

Question: What about the GI50 (UO-31) of the same molecule?
Answer: The GI50 was > 100 µM (inactive).

Question: Which results are given for `CC(C)NC(=O)OCc1c(COC(=O)NC(C)C)n(C)c2c1ccc1sccc12`?
Answer: GI50 (786-0): 6.35 µM (inactive); GI50 (A498): 16.3 µM (inactive); GI50 (A549): > 36.6 µM (inactive); GI50 (CAKI-1): 4.8 µM (inactive); GI50 (DU-145): 6.78 µM (inactive); GI50 (EKVX): 11.2 µM (inactive); GI50 (HCT-15): 16.9 µM; GI50 (HOP-62): 20.9 µM (inactive); GI50 (IGROV-1): 3.02 µM (inactive); GI50 (Malme-3M): 3.15 µM (inactive); GI50 (NCI-H226): 2.67 µM (inactive); GI50 (NCI-H23): 7.4 µM (inactive); GI50 (NCI-H522): 3.65 µM (inactive); GI50 (OVCAR-3): 15.7 µM (inactive); GI50 (RPMI-8226): 9.73 µM (inactive); GI50 (SK-MEL-2): 16.4 µM (inactive); GI50 (SK-MEL-5): 9.29 µM (inactive); GI50 (SNB-19): 20.8 µM (inactive); GI50 (SNB-75): 14.4 µM (inactive); GI50 (UO-31): 9.14 µM (inactive)

Question: Which GI50 (786-0) does the source give for `Cc1ccc(NC=O)c(-c2c(N)[nH]c(=S)[nH]c2=O)c1` here?
Answer: The GI50 was > 100 µM (inactive).

Question: What about the GI50 (A498) of the same molecule?
Answer: The GI50 was > 100 µM (inactive).

Question: What about the GI50 (A549) of the same molecule?
Answer: Its GI50 is > 100 µM (inactive).

Question: And the GI50 (CAKI-1)?
Answer: Its GI50 is > 100 µM (inactive).

Question: And the GI50 (DU-145)?
Answer: The GI50 was > 100 µM (inactive).

Question: What about the GI50 (EKVX) of the same molecule?
Answer: Its GI50 is > 100 µM (inactive).

Question: What about the GI50 (HCT-15) of the same molecule?
Answer: The GI50 was > 100 µM.

Question: And the GI50 (HOP-62)?
Answer: Its GI50 is > 100 µM (inactive).

Question: What about the GI50 (IGROV-1) of the same molecule?
Answer: The GI50 was > 100 µM (inactive).

Question: What about the GI50 (Malme-3M) of the same molecule?
Answer: Its GI50 is > 100 µM (inactive).

Question: And the GI50 (NCI-H226)?
Answer: The GI50 was > 100 µM (inactive).

Question: And the GI50 (NCI-H23)?
Answer: The GI50 was > 100 µM (inactive).

Question: And the GI50 (NCI-H522)?
Answer: The GI50 was > 100 µM (inactive).

Question: What about the GI50 (OVCAR-3) of the same molecule?
Answer: The GI50 was 94.2 µM (inactive).

Question: And the GI50 (RPMI-8226)?
Answer: Its GI50 is > 100 µM (inactive).

Question: What about the GI50 (SK-MEL-2) of the same molecule?
Answer: The GI50 was > 100 µM (inactive).

Question: And the GI50 (SK-MEL-5)?
Answer: Its GI50 is > 100 µM (inactive).

Question: What about the GI50 (SNB-19) of the same molecule?
Answer: Its GI50 is > 100 µM (inactive).

Question: What about the GI50 (SNB-75) of the same molecule?
Answer: Its GI50 is > 100 µM (inactive).

Question: And the GI50 (UO-31)?
Answer: Its GI50 is > 100 µM (inactive).

Question: With `C/C(=C/CO[Si](C)(C)C(C)(C)C)C(=O)N(C)c1ccccc1I` as the molecule, how does the GI50 (786-0) read?
Answer: Its GI50 is 17.1 µM (inactive).

Question: And the GI50 (A498)?
Answer: The GI50 was 17.3 µM (inactive).

Question: What about the GI50 (A549) of the same molecule?
Answer: Its GI50 is 16.6 µM (inactive).

Question: And the GI50 (CAKI-1)?
Answer: The GI50 was 15.6 µM (inactive).

Question: What about the GI50 (DU-145) of the same molecule?
Answer: The GI50 was 18.2 µM (inactive).

Question: What about the GI50 (EKVX) of the same molecule?
Answer: The GI50 was 15 µM (inactive).

Question: What about the GI50 (HCT-15) of the same molecule?
Answer: Its GI50 is 18.6 µM.

Question: And the GI50 (HOP-62)?
Answer: Its GI50 is 18.4 µM (inactive).

Question: What about the GI50 (IGROV-1) of the same molecule?
Answer: Its GI50 is 16 µM (inactive).

Question: What about the GI50 (Malme-3M) of the same molecule?
Answer: Its GI50 is 14.3 µM (inactive).

Question: And the GI50 (NCI-H226)?
Answer: The GI50 was 16.4 µM (inactive).

Question: What about the GI50 (NCI-H23) of the same molecule?
Answer: Its GI50 is 22 µM (inactive).

Question: What about the GI50 (NCI-H522) of the same molecule?
Answer: Its GI50 is 15.6 µM (inactive).

Question: What about the GI50 (OVCAR-3) of the same molecule?
Answer: Its GI50 is 15.9 µM (inactive).

Question: And the GI50 (RPMI-8226)?
Answer: The GI50 was 19.4 µM (inactive).

Question: And the GI50 (SK-MEL-2)?
Answer: Its GI50 is 15.7 µM (inactive).

Question: And the GI50 (SK-MEL-5)?
Answer: The GI50 was 15.4 µM (inactive).

Question: And the GI50 (SNB-19)?
Answer: Its GI50 is 16.6 µM (inactive).

Question: What about the GI50 (SNB-75) of the same molecule?
Answer: The GI50 was 19.1 µM (inactive).

Question: What about the GI50 (UO-31) of the same molecule?
Answer: Its GI50 is 14.8 µM (inactive).
